The test system of this data set is CCRIS mutagenicity, Ames/micronucleus/aberration tests. Kind of data set: CCRIS mutagenicity studies.
[1] abbreviates: Test System: AMES SALMONELLA TYPHIMURIUM, Strain/Indicator: TA98, Metabolic Activation: HAMSTER, LIVER, S-9, AROCLOR 1254 (10%), Method: PREINCUBATION
[2] abbreviates: Test System: AMES SALMONELLA TYPHIMURIUM, Strain/Indicator: TA98, Metabolic Activation: NONE, Method: PREINCUBATION
[3] abbreviates: Test System: AMES SALMONELLA TYPHIMURIUM, Strain/Indicator: TA98, Metabolic Activation: RAT, LIVER, S-9, AROCLOR 1254 (10%), Method: PREINCUBATION
The mark [4] stands for this setting: Test System: AMES SALMONELLA TYPHIMURIUM, Strain/Indicator: TA100, Metabolic Activation: HAMSTER, LIVER, S-9, AROCLOR 1254 (10%), Method: PREINCUBATION
Setting [5] is: Test System: AMES SALMONELLA TYPHIMURIUM, Strain/Indicator: TA100, Metabolic Activation: NONE, Method: PREINCUBATION
The mark [6] stands for this setting: Test System: AMES SALMONELLA TYPHIMURIUM, Strain/Indicator: TA1535, Metabolic Activation: HAMSTER, LIVER, S-9, AROCLOR 1254 (10%), Method: PREINCUBATION
Where [7] appears, read: Test System: AMES SALMONELLA TYPHIMURIUM, Strain/Indicator: TA1535, Metabolic Activation: NONE, Method: PREINCUBATION

The structures appear in SMILES notation. The source made the active and inactive calls. No rule for the calls is given here.

Take `Cc1ccc(S(=O)(=O)O)cc1C`: the mutagenic call is “inactive; negative” (Test System: AMES SALMONELLA TYPHIMURIUM, Strain/Indicator: TA98, Metabolic Activation: HAMSTER LIVER S-9, AROCLOR 1254 (10%), Method: PREINCUBATION); “inactive; negative” under setting [1]; “inactive; negative” under setting [2]; “inactive; negative” (Test System: AMES SALMONELLA TYPHIMURIUM, Strain/Indicator: TA98, Metabolic Activation: RAT LIVER S-9, AROCLOR 1254 (10%), Method: PREINCUBATION); “inactive; negative” under setting [3]; “inactive; negative” (Test System: AMES SALMONELLA TYPHIMURIUM, Strain/Indicator: TA100, Metabolic Activation: HAMSTER LIVER S-9, AROCLOR 1254 (10%), Method: PREINCUBATION). Besides, the mutagenic call is, setting by setting: under setting [4], “inactive; negative”; under setting [5], “inactive; negative”; (Test System: AMES SALMONELLA TYPHIMURIUM, Strain/Indicator: TA100, Metabolic Activation: RAT LIVER S-9, AROCLOR 1254 (10%), Method: PREINCUBATION) “inactive; negative”; (Test System: AMES SALMONELLA TYPHIMURIUM, Strain/Indicator: TA100, Metabolic Activation: RAT, LIVER, S-9, AROCLOR 1254 (10%), Method: PREINCUBATION) “inactive; negative”; (Test System: AMES SALMONELLA TYPHIMURIUM, Strain/Indicator: TA1535, Metabolic Activation: HAMSTER LIVER S-9, AROCLOR 1254 (10%), Method: PREINCUBATION) “inactive; negative”; under setting [6], “inactive; negative”. Also, the mutagenic call was “inactive; negative” under setting [7]; “inactive; negative” (Test System: AMES SALMONELLA TYPHIMURIUM, Strain/Indicator: TA1535, Metabolic Activation: RAT LIVER S-9, AROCLOR 1254 (10%), Method: PREINCUBATION); “inactive; negative” (Test System: AMES SALMONELLA TYPHIMURIUM, Strain/Indicator: TA1535, Metabolic Activation: RAT, LIVER, S-9, AROCLOR 1254 (10%), Method: PREINCUBATION); “inactive; negative” (Test System: AMES SALMONELLA TYPHIMURIUM, Strain/Indicator: TA1537, Metabolic Activation: HAMSTER LIVER S-9, AROCLOR 1254 (10%), Method: PREINCUBATION); “inactive; negative” (Test System: AMES SALMONELLA TYPHIMURIUM, Strain/Indicator: TA1537, Metabolic Activation: HAMSTER, LIVER, S-9, AROCLOR 1254 (10%), Method: PREINCUBATION); “inactive; negative” (Test System: AMES SALMONELLA TYPHIMURIUM, Strain/Indicator: TA1537, Metabolic Activation: NONE, Method: PREINCUBATION). In addition, the mutagenic call was “inactive; negative” (Test System: AMES SALMONELLA TYPHIMURIUM, Strain/Indicator: TA1537, Metabolic Activation: RAT LIVER S-9, AROCLOR 1254 (10%), Method: PREINCUBATION); “inactive; negative” (Test System: AMES SALMONELLA TYPHIMURIUM, Strain/Indicator: TA1537, Metabolic Activation: RAT, LIVER, S-9, AROCLOR 1254 (10%), Method: PREINCUBATION); “inactive; negative” (Test System: MOUSE LYMPHOMA, Strain/Indicator: L5178Y (TK+/TK-), Metabolic Activation: NONE, Method: SUSPENSION/PLATE).
In the case of `Cn1c(N)nc2ccccc21`, the mutagenic call (Test System: AMES SALMONELLA TYPHIMURIUM, Strain/Indicator: TA98, Metabolic Activation: RAT, LIVER, S-9, AROCLOR 1254, Method: PREINCUBATION) was “active; positive” and the mutagenic call (Test System: AMES SALMONELLA TYPHIMURIUM, Strain/Indicator: TA100, Metabolic Activation: RAT, LIVER, S-9, AROCLOR 1254, Method: PREINCUBATION) is “active; positive”.
Regarding `O[C@@H]1[C@H]2O[C@H]2c2c(cc3ccc4cccc5c6ccccc6c2c3c45)[C@H]1O`, the mutagenic call is “active; positive” (Test System: AMES SALMONELLA TYPHIMURIUM, Strain/Indicator: TA97, Metabolic Activation: NONE, Method: PREINCUBATION (EXPOSURE IN MEDIUM WITH KCL)); “active; positive” (Test System: AMES SALMONELLA TYPHIMURIUM, Strain/Indicator: TA97, Metabolic Activation: NONE, Method: PREINCUBATION (EXPOSURE IN MEDIUM WITHOUT KCL)); “active; positive” (Test System: AMES SALMONELLA TYPHIMURIUM, Strain/Indicator: TA98, Metabolic Activation: NONE, Method: PREINCUBATION (EXPOSURE IN MEDIUM WITH KCL)); “active; positive” (Test System: AMES SALMONELLA TYPHIMURIUM, Strain/Indicator: TA98, Metabolic Activation: NONE, Method: PREINCUBATION (EXPOSURE IN MEDIUM WITHOUT KCL)); “active; positive” (Test System: AMES SALMONELLA TYPHIMURIUM, Strain/Indicator: TA100, Metabolic Activation: NONE, Method: PREINCUBATION (EXPOSURE IN MEDIUM WITH KCL)); “active; positive” (Test System: AMES SALMONELLA TYPHIMURIUM, Strain/Indicator: TA100, Metabolic Activation: NONE, Method: PREINCUBATION (EXPOSURE IN MEDIUM WITHOUT KCL)). Further, the mutagenic call is “active; positive” (Test System: AMES SALMONELLA TYPHIMURIUM, Strain/Indicator: TA104, Metabolic Activation: NONE, Method: PREINCUBATION (EXPOSURE IN MEDIUM WITH KCL)); “active; positive” (Test System: AMES SALMONELLA TYPHIMURIUM, Strain/Indicator: TA104, Metabolic Activation: NONE, Method: PREINCUBATION (EXPOSURE IN MEDIUM WITHOUT KCL)); “active; positive” (Test System: CHINESE HAMSTER V-79, Strain/Indicator: V-79/6-THIOGUANINE, Metabolic Activation: NONE).
As to `CCCCC(CC)COCC1CO1` (configuration not stated), the mutagenic call is, setting by setting: (Test System: AMES SALMONELLA TYPHIMURIUM, Strain/Indicator: TA97, Metabolic Activation: HAMSTER, LIVER, S-9, AROCLOR 1254 (10%), Method: PREINCUBATION) “inactive; negative”; (Test System: AMES SALMONELLA TYPHIMURIUM, Strain/Indicator: TA97, Metabolic Activation: NONE, Method: PREINCUBATION) “inactive; negative”; (Test System: AMES SALMONELLA TYPHIMURIUM, Strain/Indicator: TA97, Metabolic Activation: RAT, LIVER, S-9, AROCLOR 1254 (10%), Method: PREINCUBATION) “inactive; negative”; under setting [1], “inactive; negative”; under setting [2], “inactive; negative”; under setting [3], “inactive; negative”. The mutagenic call was “inactive; negative” under setting [4]; “inactive; negative” under setting [5]; “inactive; negative” (Test System: AMES SALMONELLA TYPHIMURIUM, Strain/Indicator: TA100, Metabolic Activation: RAT, LIVER, S-9, AROCLOR 1254 (5 OR 30%), Method: PREINCUBATION); “inactive; negative” (Test System: AMES SALMONELLA TYPHIMURIUM, Strain/Indicator: TA100, Metabolic Activation: RAT, LIVER, S-9, AROCLOR 1254 (30%), Method: PREINCUBATION); “inactive; negative” under setting [6]; “inactive; negative” under setting [7]. In addition, the mutagenic call was “active; positive” (Test System: AMES SALMONELLA TYPHIMURIUM, Strain/Indicator: TA1535, Metabolic Activation: RAT, LIVER, S-9, AROCLOR 1254 (5% & 10%), Method: PREINCUBATION); “active; positive” (Test System: AMES SALMONELLA TYPHIMURIUM, Strain/Indicator: TA1535, Metabolic Activation: RAT, LIVER, S-9, AROCLOR 1254 (5 OR 10%), Method: PREINCUBATION); “inactive; negative” (Test System: AMES SALMONELLA TYPHIMURIUM, Strain/Indicator: TA1535, Metabolic Activation: RAT, LIVER, S-9, AROCLOR 1254 (30%), Method: PREINCUBATION).

For the origin of these results see PubChem BioAssay AID1259407 (Chemical Carcinogenesis Research Information System (CCRIS), 2018).
